We go through three compounds from publication PMC10485906, “Development of a Dihydroquinoline–Pyrazoline GluN2C/2D-Selective Negative Allosteric Modulator of the N-Methyl-D-aspartate Receptor” (ACS Chemical Neuroscience, 2023).

In one assay the target is GluN1-4a/GluN3B (Rattus norvegicus, UniProt P35439+Q8VHN2). Nature of the assay: Off-target, oocytes, GluN1-4a/GluN3B. The format is cell-based. The conditions noted are these: 1 µM compound; 100 µM glycine. As to the method:
(§1) Analysis of Off-target Actions
(§2) Compound (S)-(-)-2i was tested at 1 µM for actions at glycine-activated GluN1/GluN3A (human GluN1-F484A,T518L/GluN3A referred to a GluN1-FA,TL/GluN3A) and rat GluN1-4a/GluN3B in the presence of 0.5 µM CGP-78608. cRNA injection ratios for GluN1/GluN3 were 1:2. Compound (S)-(-)- 2i was also tested for actions at AMPA (rat GluA1, rat GluA2, human GluA3-L531Y), kainate (rat GluK2), nicotinic acetylcholine (rat α7 and α4β2, cRNA ratio 1:1), GABAA (rat α1β2γ2S, cRNA ratio 1:1:1), GABAC (rat ρ1), glycine (rat α1), and purinergic (human P2X) receptors expressed in Xenopus oocytes. cRNA encoding the receptor subunits was synthesized from linear template cDNA using the mMessage mMachine kit (Ambion). Oocytes were injected with 1-5 ng cRNA in a 50 nL volume and incubated in Barth's solution at 15°C for 2-5 days prior to recording. GluK2-expressing oocyte were incubated in 1 mg/ml (10 µM) concanavalin-A for 10 min prior to recording. The cDNAs encoding GABAC and glycine subunits were provided by Dr. D. Weiss (University of Texas Health Science Center at San Antonio). cDNAs encoding nicotinic acetylcholine receptor subunits were provided by Drs. […]
(§3) GABA. […] Responses in presence of test compound were expressed as a percent of control. […]

A further assay has as its target T1, GluA1 (Rattus norvegicus, UniProt P19490).
T1 construct: expressed in transfected cells; host or cells: Xenopus oocytes (cRNA injection)
Nature of the assay: Off-target, oocytes, GluA1. The format is cell-based. The conditions noted are these: 1 µM compound; 100 µM glutamate. As to the method: as §1, §2, §3

For the next assay, the target named is T2, GluA2-R607Q (Rattus norvegicus, UniProt P19491).
T2 construct: expressed in transfected cells; host or cells: Xenopus oocytes (cRNA injection)
T2 sequence (P19491 22-883, stated change not applied): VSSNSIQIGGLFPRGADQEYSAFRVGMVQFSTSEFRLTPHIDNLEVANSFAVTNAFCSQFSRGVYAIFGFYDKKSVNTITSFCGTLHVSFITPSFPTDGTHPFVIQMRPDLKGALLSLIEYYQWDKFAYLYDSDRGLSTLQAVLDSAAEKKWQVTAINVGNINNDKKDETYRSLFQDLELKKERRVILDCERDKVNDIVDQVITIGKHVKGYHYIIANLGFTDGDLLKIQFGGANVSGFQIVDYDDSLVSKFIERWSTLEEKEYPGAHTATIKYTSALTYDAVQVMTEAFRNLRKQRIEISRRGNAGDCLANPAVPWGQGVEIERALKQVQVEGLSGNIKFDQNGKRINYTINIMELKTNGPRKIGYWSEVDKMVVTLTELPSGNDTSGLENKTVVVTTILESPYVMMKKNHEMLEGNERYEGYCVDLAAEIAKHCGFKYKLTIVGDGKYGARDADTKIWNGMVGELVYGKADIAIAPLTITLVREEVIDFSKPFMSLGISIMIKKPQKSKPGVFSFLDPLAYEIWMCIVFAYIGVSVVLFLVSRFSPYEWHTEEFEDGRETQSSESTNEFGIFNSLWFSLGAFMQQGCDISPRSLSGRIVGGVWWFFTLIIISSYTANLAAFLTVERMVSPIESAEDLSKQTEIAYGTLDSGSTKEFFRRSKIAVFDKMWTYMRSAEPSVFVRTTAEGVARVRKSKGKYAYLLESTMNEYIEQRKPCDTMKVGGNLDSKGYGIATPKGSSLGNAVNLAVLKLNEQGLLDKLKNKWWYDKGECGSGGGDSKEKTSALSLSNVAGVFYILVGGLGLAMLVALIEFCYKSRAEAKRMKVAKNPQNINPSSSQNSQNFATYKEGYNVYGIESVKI
The experiment in a line: Off-target, oocytes, GluA2. The format is cell-based. To be noted: 1 µM compound; 100 µM glutamate. The method, then:
as §1, §2, §3

A further assay addresses 42-nACh (Rattus norvegicus, UniProt P09483+P12390). Nature of the assay: Off-target, oocytes, nicotinic acetylcholine 42. The format is cell-based. To be noted: 1 µM compound; 10 µM acetylcholine. As to the method:
as §1, §2, §3

Another assay concerns the target α7-nACh (Rattus norvegicus, UniProt Q05941). The experiment in a line: Off-target, oocytes, nicotinic acetylcholine α7. To be noted: 1 µM compound; 300 µM acetylcholine. The format is cell-based. As to the method: as §1, §2, §3
The next assay has as its target GluN1/GluN2C (Rattus norvegicus, UniProt Q00961). Also on record: GluN2B (NM_012574.1), GluN2C (NM_012575.3), and GluN2D (NM_022797.2) were provided by; expressed in transfected cells; host or cells: Xenopus laevis oocytes (cRNA injection). The conditions noted are these: reproduced for comparison; cited from earlier work.
For another assay, the system named is Tsc1^± mice. Nature of the assay: Acute epileptic mouse model, EEG recordings of seizures. The format is in vivo. As to the method: All experiments were conducted in agreement with the requirements of the European Directive 2010/63/EU. Mice were housed in ventilated, light-tight, sound-isolated chambers under a standard 12:12 light/dark cycle (light on at […]) with food and water available ad libitum. C57BL/6J wild-type (Tsc1^+/+) females from Janvier Laboratories (France) were crossed with heterozygote Tsc1^± male mice with the genetic background B6;129S4-Tsc1^tm1.1Djk/Nci. The genotyping of pups issuing from this cross-breeding was performed on tail tissue samples at postnatal day P9. The study was conducted in Tsc1^± male mice at P14–16. Pups from at least three deliveries for each condition were studied to minimize the potential sampling bias.
The DQP derivative 2i was diluted in DMSO at a concentration of 100 mM before being added to 100 to 150 μL of saline solution and intraperitoneally injected in mice. Intraperitoneal injection was administered during the EEG recordings at three different concentrations: 7, 14, and 28 mg/kg to estimate the dose–response relationship.
Experiments were performed on postnatal days of P14 and P16 male Tsc1^± mice. Surgery was performed under isoflurane anesthesia and lidocaine analgesia. During recordings, the head was fixed to the frame of a stereotaxic apparatus by attached bars; animals were surrounded by a cotton nest and heated via a thermal pad (36.6–37.7 °C). A silver chloride reference electrode was placed in the cerebellum. EEG recordings were performed with nonanaesthetized head-restrained Tsc1^± mice. […] Recordings were analyzed offline using Clampfit (Molecular Devices, San Jose) and Origin (MicroCal, Northampton, MA) software. […] During EEG recordings, animals were monitored visually to determine the behavioral correlates of each electrographic epileptic discharge. […]

Sequence of GluN1/GluN2C (Q00961 20-1237, other chains not shown): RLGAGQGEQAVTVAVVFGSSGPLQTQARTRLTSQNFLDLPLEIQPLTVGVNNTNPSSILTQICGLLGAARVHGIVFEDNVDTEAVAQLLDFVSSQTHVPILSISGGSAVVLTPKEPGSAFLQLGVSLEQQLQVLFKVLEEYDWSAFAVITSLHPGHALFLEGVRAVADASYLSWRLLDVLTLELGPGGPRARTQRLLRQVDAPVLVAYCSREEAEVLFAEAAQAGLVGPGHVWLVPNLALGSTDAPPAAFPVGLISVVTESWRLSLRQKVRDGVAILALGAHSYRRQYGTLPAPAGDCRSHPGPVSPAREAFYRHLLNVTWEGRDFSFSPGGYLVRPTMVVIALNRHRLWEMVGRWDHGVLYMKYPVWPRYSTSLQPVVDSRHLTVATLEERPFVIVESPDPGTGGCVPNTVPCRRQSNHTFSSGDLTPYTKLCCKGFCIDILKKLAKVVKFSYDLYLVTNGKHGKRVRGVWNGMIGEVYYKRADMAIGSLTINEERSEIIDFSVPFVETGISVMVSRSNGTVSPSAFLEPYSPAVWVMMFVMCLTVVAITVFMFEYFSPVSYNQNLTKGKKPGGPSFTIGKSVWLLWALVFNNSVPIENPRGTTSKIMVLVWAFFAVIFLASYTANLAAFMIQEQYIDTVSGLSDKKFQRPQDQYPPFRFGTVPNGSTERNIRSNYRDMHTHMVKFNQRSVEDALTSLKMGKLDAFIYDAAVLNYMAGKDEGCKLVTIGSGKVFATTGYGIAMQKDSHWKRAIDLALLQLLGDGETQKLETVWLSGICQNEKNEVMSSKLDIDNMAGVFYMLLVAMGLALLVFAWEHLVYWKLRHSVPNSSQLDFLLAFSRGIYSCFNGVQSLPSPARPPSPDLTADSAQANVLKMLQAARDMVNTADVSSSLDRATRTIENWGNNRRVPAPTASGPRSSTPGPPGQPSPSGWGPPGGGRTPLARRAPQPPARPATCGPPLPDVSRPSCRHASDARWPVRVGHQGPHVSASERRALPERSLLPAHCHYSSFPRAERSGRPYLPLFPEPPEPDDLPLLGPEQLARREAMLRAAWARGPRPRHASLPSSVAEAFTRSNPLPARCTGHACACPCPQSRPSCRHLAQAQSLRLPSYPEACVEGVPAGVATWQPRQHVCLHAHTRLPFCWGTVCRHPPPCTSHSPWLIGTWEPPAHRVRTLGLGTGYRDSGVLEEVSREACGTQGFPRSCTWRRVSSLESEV
T1 sequence (P19490 19-907): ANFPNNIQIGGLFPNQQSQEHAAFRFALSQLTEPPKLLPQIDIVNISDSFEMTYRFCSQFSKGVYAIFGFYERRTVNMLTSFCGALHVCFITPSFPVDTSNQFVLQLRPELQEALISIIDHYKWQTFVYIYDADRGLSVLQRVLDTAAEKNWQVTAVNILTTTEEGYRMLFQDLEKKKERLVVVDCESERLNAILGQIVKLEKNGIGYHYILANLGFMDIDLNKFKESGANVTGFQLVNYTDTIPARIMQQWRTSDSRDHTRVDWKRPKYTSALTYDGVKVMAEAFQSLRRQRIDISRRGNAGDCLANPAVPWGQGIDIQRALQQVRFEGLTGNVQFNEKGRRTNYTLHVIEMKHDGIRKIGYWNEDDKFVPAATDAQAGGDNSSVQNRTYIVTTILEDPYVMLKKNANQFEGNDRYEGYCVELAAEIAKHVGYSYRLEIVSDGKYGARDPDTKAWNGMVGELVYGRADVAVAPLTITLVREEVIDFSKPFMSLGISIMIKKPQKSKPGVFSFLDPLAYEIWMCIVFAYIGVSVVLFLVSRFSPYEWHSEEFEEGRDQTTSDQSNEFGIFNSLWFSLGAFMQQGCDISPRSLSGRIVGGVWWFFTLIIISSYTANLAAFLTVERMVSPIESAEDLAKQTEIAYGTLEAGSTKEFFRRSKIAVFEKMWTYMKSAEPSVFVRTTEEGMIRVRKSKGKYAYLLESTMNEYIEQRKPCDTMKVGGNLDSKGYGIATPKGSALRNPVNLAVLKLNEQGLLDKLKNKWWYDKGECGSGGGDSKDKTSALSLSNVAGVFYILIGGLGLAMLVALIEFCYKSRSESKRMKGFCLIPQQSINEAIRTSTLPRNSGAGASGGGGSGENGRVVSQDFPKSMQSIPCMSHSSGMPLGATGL
Sequence of GluN1-4a/GluN3B (Q8VHN2 25-1002, other chains not shown): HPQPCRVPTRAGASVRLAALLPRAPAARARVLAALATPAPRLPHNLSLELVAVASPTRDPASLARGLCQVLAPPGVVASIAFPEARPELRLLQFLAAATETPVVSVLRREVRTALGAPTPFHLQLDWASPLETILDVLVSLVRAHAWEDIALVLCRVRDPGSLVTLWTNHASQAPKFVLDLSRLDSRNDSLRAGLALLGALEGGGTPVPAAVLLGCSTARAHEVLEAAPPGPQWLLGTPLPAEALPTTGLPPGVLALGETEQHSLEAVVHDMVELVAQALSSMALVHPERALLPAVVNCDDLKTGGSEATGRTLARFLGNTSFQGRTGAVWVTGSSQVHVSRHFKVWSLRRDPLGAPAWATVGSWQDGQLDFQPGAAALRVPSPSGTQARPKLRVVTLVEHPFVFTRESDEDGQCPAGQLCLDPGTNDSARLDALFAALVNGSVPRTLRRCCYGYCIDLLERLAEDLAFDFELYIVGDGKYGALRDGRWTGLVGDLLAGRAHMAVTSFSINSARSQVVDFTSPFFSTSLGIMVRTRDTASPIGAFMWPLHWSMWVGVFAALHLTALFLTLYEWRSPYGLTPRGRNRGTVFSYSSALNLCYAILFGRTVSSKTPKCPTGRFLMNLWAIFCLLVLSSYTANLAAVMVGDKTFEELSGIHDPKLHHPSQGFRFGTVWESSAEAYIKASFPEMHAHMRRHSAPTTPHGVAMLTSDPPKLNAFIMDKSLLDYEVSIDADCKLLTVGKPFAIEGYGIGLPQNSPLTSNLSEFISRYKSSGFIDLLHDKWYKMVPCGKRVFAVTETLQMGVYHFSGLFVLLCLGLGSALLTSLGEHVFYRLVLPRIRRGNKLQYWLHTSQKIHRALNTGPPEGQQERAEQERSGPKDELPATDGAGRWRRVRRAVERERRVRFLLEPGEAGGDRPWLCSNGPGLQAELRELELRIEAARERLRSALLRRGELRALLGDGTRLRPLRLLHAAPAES
Sequence of 42-nACh (P09483 31-630): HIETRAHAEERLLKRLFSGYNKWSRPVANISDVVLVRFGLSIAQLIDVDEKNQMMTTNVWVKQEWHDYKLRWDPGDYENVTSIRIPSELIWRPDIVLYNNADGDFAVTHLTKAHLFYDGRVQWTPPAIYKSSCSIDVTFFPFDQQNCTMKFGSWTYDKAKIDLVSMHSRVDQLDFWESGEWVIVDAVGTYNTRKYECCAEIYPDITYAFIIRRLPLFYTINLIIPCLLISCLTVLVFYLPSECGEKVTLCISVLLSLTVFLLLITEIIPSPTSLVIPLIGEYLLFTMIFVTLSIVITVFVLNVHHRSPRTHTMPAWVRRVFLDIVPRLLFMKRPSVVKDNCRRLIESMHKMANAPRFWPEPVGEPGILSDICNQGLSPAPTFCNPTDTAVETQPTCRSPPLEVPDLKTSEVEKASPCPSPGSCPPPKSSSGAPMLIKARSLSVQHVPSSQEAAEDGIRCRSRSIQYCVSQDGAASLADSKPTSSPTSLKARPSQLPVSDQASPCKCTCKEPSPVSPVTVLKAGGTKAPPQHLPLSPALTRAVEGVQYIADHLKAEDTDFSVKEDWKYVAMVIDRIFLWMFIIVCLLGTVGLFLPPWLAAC
Sequence of 42-nACh (P12390 25-500): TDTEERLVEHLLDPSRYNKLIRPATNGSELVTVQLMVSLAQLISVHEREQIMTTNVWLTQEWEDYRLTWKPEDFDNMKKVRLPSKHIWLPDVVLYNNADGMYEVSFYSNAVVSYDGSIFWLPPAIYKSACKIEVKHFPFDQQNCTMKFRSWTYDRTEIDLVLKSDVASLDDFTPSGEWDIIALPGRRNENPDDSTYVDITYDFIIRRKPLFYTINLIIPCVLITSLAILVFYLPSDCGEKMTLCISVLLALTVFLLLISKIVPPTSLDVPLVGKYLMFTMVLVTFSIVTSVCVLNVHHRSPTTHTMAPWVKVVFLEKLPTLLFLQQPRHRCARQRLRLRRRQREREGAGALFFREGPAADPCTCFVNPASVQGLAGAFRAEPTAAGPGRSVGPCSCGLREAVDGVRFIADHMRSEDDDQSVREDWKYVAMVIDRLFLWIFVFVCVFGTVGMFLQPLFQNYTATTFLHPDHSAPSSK

As for `O=C(O)CC(F)(F)C(=O)N1N=C(c2c(-c3ccc(Cl)cc3)c3ccccc3[nH]c2=O)C[C@H]1c1ccc(Cl)cc1` [(S)-(−)-2i], the “% control GluN1-4a/GluN3B” value on GluN1-4a/GluN3B came out at 97 ± 1.0%. At GluA1, the “% control GluA1” value is listed as 100 ± 2.0%. The “% control GluA2-R607Q” value at GluA2-R607Q turned out to be 98 ± 0.85%. For the same compound, the “% control 42-nACh” value at 42-nACh is reported as 91 ± 2.1%. Besides, on α7-nACh, the “% control α7-nACh” value came out at 105 ± 13.5%.

In the case of `O=C(O)CCC(=O)N1N=C(c2c(-c3ccc(Cl)cc3)c3ccccc3[nH]c2=O)CC1c1ccc(Cl)cc1` (stereo not drawn) [2a], the “I 30 μM / I control GluN2C” value on GluN1/GluN2C was 3.1 ± 0.6 (2,6) %.

With `O=C(O)CC(F)(F)C(=O)N1N=C(c2c(-c3ccc(Cl)cc3)c3ccccc3[nH]c2=O)CC1c1ccc(Cl)cc1` (stereo not drawn) [2i], in the assay with Tsc1^± mice (14 mg/kg IP, male Tsc1^± mice P14–16, neocortical layers 2/3 and 4), the “effect on spontaneous electrographic seizures” value is given as “significantly reduced spontaneous electrographic seizures”. The “effect on epileptic events” value in the assay with Tsc1^± mice (28 mg/kg IP, male Tsc1^± mice P14–16) is reported as “epileptic events stopped immediately”. The “effect on number of epileptic events” value with Tsc1^± mice (murine model of TSC-induced epilepsy, abstract) is “significantly reduced the number of epileptic events”.
